Bounds are passed on as bounds.

The target of this experiment is human factor IXa (Homo sapiens (Human), UniProt P00740). The experiment can be described thus: Determination of inhibitory activity against factor IXa (fluorogenic substrate SPECTROFLUOR FIXa). The experiment is classed as biochemical. As to conditions: Factor IXa enzyme assay human. The protocol:
Inhibitory activity against factor IXa was tested using the substrate SPECTROFLUOR FIXa (american diagnostica inc.; 500 West Avenue, Stamford, Conn. 06902 USA; Pr. No. 299F) and human factor IXa (american diagnostica inc.; Pr. No. 449b). Test substances were dissolved in buffer A (50 mM α,α,α-tris (hydroxymethyl) methylamine (Tris), 100 mM NaCl, 5 mM CaCl2, 15% (v/v) ethylene glycol, pH 8.0) were mixed with factor IXa (0.1 μg/ml final concentration). The enzyme reaction was started by addition of SPECTROFLUOR FIXa (100 μM final concentration). After incubation for 60 minutes at room temperature, the reaction was stopped by the addition of 20% (v/v) acetic acid solution, and then the fluorescence value was measured (Excitation Wavelength: 355 nm, Emission Wavelength; 460 nm) in a microtiter plate reader (ARVO 1420 Multilabel Counter; PerkinElmer).
The IC50 was calculated from a dilution series of the test substance with the aid of the software, Symyx Assay Explorer (Symyx Technologies, Inc.).

Sequence of human factor IXa (P00740 227-461): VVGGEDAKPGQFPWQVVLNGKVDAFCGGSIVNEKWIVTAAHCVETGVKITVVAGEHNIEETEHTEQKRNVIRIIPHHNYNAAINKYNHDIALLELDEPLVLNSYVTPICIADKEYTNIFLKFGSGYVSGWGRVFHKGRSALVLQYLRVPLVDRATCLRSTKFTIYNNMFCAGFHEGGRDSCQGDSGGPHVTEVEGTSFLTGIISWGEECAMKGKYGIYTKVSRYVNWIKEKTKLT
Sequence of human factor IXa (P00740 47-191 partner): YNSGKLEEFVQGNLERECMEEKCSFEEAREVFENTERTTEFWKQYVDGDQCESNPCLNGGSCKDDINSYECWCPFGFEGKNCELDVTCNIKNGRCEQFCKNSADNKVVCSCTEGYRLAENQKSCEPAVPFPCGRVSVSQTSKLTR

Consider `Cn1ncn(-c2ccc(C(=O)N[C@@H]3[C@H]4CC[C@@H]3N(c3ncc(Cl)c5c(N)noc35)C4)c(Cl)c2)c1=O` (relative stereo) [Example 28, N-((1S*,4S*,7R*)-2-(3-Amino-4-chloroisoxazolo[5,4-c]pyridin-7-yl)-2-azabicyclo[2.2.1]heptan-7-yl)-2-chloro-4-(1-methyl-5-oxo-1,5-dihydro-4H-1,2,4-triazol-4-yl)benzamide], for which the IC50 was at most 100 nM.

For the compound `Nc1noc2c(N3C[C@@H]4CC[C@H]3[C@@H]4NC(=O)c3ccc(-n4cnnc4)cc3Cl)ncc(Cl)c12` (relative stereo) [Example 6, N-((1S*,4S*,7R*)-2-(3-Amino-4-chloroisoxazolo[5,4-c]pyridin-7-yl)-2-azabicyclo[2.2.1]heptan-7-yl)-2-chloro-4-(4H-1,2,4-triazol-4-yl)benzamide], the IC50 is at most 100 nM.

In the case of `Nc1noc2c(N3C[C@@H]4CC[C@H]3[C@@H]4NC(=O)c3ccc(-n4cnc5ncccc54)cc3Cl)ncc(Cl)c12` (relative stereo) [Example 22, N-((1S*,4S*,7R*)-2-(3-Amino-4-chloroisoxazolo[5,4-c]pyridin-7-yl)-2-azabicyclo[2.2.1]heptan-7-yl)-2-chloro-4-(1H-imidazo[4,5-b]pyridin-1-yl)benzamide], the half-maximal inhibitory concentration (IC50) is at most 100 nM.

`Cc1ncn(-c2ccc(C(=O)N[C@@H]3[C@H]4CC[C@@H]3N(c3nccc5c(N)noc35)C4)c(Cl)c2)n1` (relative stereo) [Example 2, N-((1S*,4S*,7R*)-2-(3-Aminoisoxazolo[5,4-c]pyridin-7-yl)-2-azabicyclo[2.2.1]heptan-7-yl)-2-chloro-4-(3-methyl-1H-1,2,4-triazol-1-yl)benzamide] displayed an IC50 of at most 100 nM.

`Nc1noc2c(N3C[C@@H]4CC[C@H]3[C@@H]4NC(=O)c3ccc(-n4cnnc4)cc3Cl)ccc(Cl)c12` (relative stereo) [Example 5, N-((1S*,4S*,7R*)-2-(3-Amino-4-chlorobenzo[d]isoxazol-7-yl)-2-azabicyclo[2.2.1]heptan-7-yl)-2-chloro-4-(4H-1,2,4-triazol-4-yl)benzamide] had an IC50 of at most 100 nM.

`Nc1noc2c(N3C[C@@H]4CC[C@H]3[C@@H]4NC(=O)c3ccc(-c4ccc(=O)n(C(F)F)c4)cc3Cl)ncc(Cl)c12` (relative stereo) [Example 19, N-((1S*,4S*,7R*)-2-(3-Amino-4-chloroisoxazolo[5,4-c]pyridin-7-yl)-2-azabicyclo[2.2.1]heptan-7-yl)-2-chloro-4-(1-(difluoromethyl)-6-oxo-1,6-dihydropyridin-3-yl)benzamide] yielded a concentration for half-maximal inhibition (IC50) of at most 100 nM.

In the case of `Cc1cc2c(N)noc2c(N2CC3CCC2C3NC(=O)c2ccc(-n3cnc(C)n3)cc2Cl)n1` (single isomer, unassigned) [Example 11.2, N-((1S*,4S*,7R*)-2-(3-Amino-5-methylisoxazolo[5,4-c]pyridin-7-yl)-2-azabicyclo[2.2.1]heptan-7-yl)-2-chloro-4-(3-methyl-1H-1,2,4-triazol-1-yl)benzamide], the half-inhibitory concentration (IC50) was at most 100 nM.

`Cc1ncn(-c2ccc(C(=O)NC3C4CCC3N(c3ncc(Cl)c5c(N)noc35)C4)c(Cl)c2)n1` (single isomer, unassigned) [Example 7.2, N-((1S*,4S*,7R*)-2-(3-Amino-4-chloroisoxazolo[5,4-c]pyridin-7-yl)-2-azabicyclo[2.2.1]heptan-7-yl)-2-chloro-4-(3-methyl-1H-1,2,4-triazol-1-yl)benzamide] returned an IC50 of 100 to 1000 nM.

`Nc1noc2c(N3C[C@@H]4CC[C@H]3[C@@H]4NC(=O)c3ccc(-n4cnnc4)cc3Cl)cccc12` (relative stereo) [Example 1, N-((1S*,4S*, 7R*)-2-(3-Aminobenzo[d]isoxazol-7-yl)-2-azabicyclo[2.2.1]heptan-7-yl)-2-chloro-4-(4H-1,2,4-triazol-4-yl)benzamide] came in with an IC50 of at most 100 nM.

Regarding `Cc1cc2c(N)noc2c(N2C[C@@H]3CC[C@H]2[C@@H]3NC(=O)c2ccc(-c3cnc(C#N)nc3)cc2Cl)n1` (relative stereo) [Example 17, N-((1S*,4S*,7R*)-2-(3-Amino-5-methylisoxazolo[5,4-c]pyridin-7-yl)-2-azabicyclo[2.2.1]heptan-7-yl)-2-chloro-4-(2-cyanopyrimidin-5-yl)benzamide], the IC50 was at most 100 nM.

Take `Cn1cc(-c2ccc(C(=O)N[C@@H]3[C@H]4CC[C@@H]3N(c3ncc(Cl)c5c(N)noc35)C4)c(Cl)c2)ccc1=O` (relative stereo) [Example 18, N-((1S*,4S*,7R*)-2-(3-Amino-4-chloroisoxazolo[5,4-c]pyridin-7-yl)-2-azabicyclo[2.2.1]heptan-7-yl)-2-chloro-4-(1-methyl-6-oxo-1,6-dihydropyridin-3-yl)benzamide]: the half-maximal inhibitory concentration (IC50) was at most 100 nM.

`Cc1ncn(-c2cnc(C(=O)N[C@@H]3[C@H]4CC[C@@H]3N(c3ncc(Cl)c5c(N)noc35)C4)c(Cl)c2)n1` (single isomer, unassigned) [Example 29, N-((1S*,4S*,7R*)-2-(3-Amino-4-chloroisoxazolo[5,4-c]pyridin-7-yl)-2-azabicyclo[2.2.1]heptan-7-yl)-3-chloro-5-(3-methyl-1H-1,2,4-triazol-1-yl)picolinamide] came in with an IC50 of at most 100 nM.

For `Nc1noc2c(N3C[C@@H]4CC[C@H]3[C@@H]4NC(=O)c3ccc(-n4cnnc4C(F)F)cc3Cl)ncc(Cl)c12` (relative stereo) [Example 16, N-((1S*,4S*,7R*)-2-(3-Amino-4-chloroisoxazolo[5,4-c]pyridin-7-yl)-2-azabicyclo[2.2.1]heptan-7-yl)-2-chloro-4-(3-(difluoromethyl)-4H-1,2,4-triazol-4-yl)benzamide], the concentration for half-maximal inhibition (IC50) is at most 100 nM.

Compound `Cn1nc(-c2ccc(C(=O)N[C@@H]3[C@H]4CC[C@@H]3N(c3ncc(Cl)c5c(N)noc35)C4)c(Cl)c2)ccc1=O` (relative stereo) [Example 24, N-((1S*,4S*,7R*)-2-(3-Amino-4-chloroisoxazolo[5,4-c]pyridin-7-yl)-2-azabicyclo[2.2.1]heptan-7-yl)-2-chloro-4-(1-methyl-6-oxo-1,6-dihydropyridazin-3-yl)benzamide] had an IC50 of at most 100 nM.

By IC50 is commonly meant the concentration needed to halve the response being measured. Read a low IC50 as higher potency.

For the origin of these results see patent publication US9808445B2, “Factor IXa inhibitors” (Merck Sharp & Dohme Corp., priority 2014, dated 2017).
